Results taken from US20220007644A1, “COMPOSITIONS COMPRISING PYRIDINE CARBOXYLATE HERBICIDES WITH PHOTOSYSTEM II AND OPTIONAL HPPD INHIBITOR HERBICIDES” (Corteva Agriscience LLC, priority 2018, published 2022).
“And” between values parts separate entries of the source, which are not always exact repeats. Identical values can stand only once.

Experiments:
Experiment in all cases: Greenhouse postemergence herbicidal effect (visual injury, 20-22 d)
Type in all cases: in vivo
[1] = tested on: BRSNN, Brassica napus (spring rape)
From the text: (§1) Greenhouse Trial Methodology—Evaluation of Postemergence Herbicidal Effect
(§2) Seeds of the desired test plant species were planted in a 90:10% v/v (volume/volume) mixture of PRO-MIX® BX (Premier Tech Horticulture, Quakertown, Pa., USA) and PROFILE®GREENS GRADE™ (Profile Products LLC, Buffalo Grove, Ill., USA) planting mixture, which typically has a pH of 5.2 to 6.2 and an organic matter content of at least 50 percent, in plastic pots with a surface area of 103.2 square centimeters (cm^2). In some aspects, to help ensure good germination and healthy plants, a fungicide treatment and/or other chemical or physical treatment was applied. The plants were grown for 7-36 days (d) in a greenhouse with an approximate 14-hour (h) photoperiod which was maintained at about 23° C. during the day and 22° C. during the night. Nutrients and water were added on a regular basis and supplemental lighting was provided with overhead metal halide 1000-Watt lamps as necessary. The plants were employed for testing when they reached the second or third true leaf stage.
(§3) Emulsifiable concentrates of each of each pyridine carboxylate herbicide (Compound A or Compound B) were prepared at 100 grams acid equivalent per liter (g ae/L). The emulsifiable concentrates also included a safener, cloquintocet-mexyl, at 120 grams active ingredient per liter (g ai/L), unless otherwise noted below. An aliquot of each emulsifiable concentrate was placed in a 25 mL glass vial and diluted with an aqueous mixture of 1.25% (v/v) ACTIROB® B esterified rapeseed oil (Bayer Crop Science, Research Triangle Park, N.C., USA) or MSO® Concentrate with LECI-TECH® methylated soybean oil (Loveland Products, Loveland, Colo., USA) to obtain concentrated stock solutions at the highest application rate for each herbicide, based upon a 12 milliliter (mL) application volume at a rate of 187 liters per hectare (L/ha). The concentrated stock solutions were further diluted with an aqueous mixture of 1.25% v/v ACTIROB® B or MSO® Concentrate with LECI-TECH® to obtain stock solutions at reduced application rates for each herbicide. Spray solutions of the herbicide combinations (Compound A or Compound B plus PS-II herbicide and optional HPPD herbicide) were prepared by adding weighed amounts or aliquots of the PS-II herbicide and optional HPPD herbicide to the stock solutions of Compound A or Compound B to form 12-mL spray solutions in two- or three-way combinations.
(§4) The spray solutions were applied to the plant material with an overhead Mandel track sprayer equipped with 8002E nozzles calibrated to deliver 187 L/ha over an application area of 0.503 square meters (m^2) at a spray height of 18 inches ([…] centimeters (cm)) above the average plant canopy. Control plants were sprayed in the same manner with the solvent blank. All pyridine carboxylate herbicide (component a) application rates are given as “g ae/ha” and all PS II inhibitor herbicide (component b) and HPPD inhibitor herbicide (component c) application rates are given as “g ai/ha.”
(§5) The treated plants and control plants were placed in a greenhouse as described above and watered by sub-irrigation to prevent wash-off of the test compounds. After 20-22 d, the condition of the test plants as compared with that of the control plants was determined visually and scored on a scale of 0 to 100 percent where 0 corresponds to no injury and 100 corresponds to complete kill.

[2] = tested on: IPOHE, Ipomoea hederacea (ivyleaf morningglory)
From the text: as §1, §2, §3, §4, §5

[3] = tested on: CIRAR, Cirsium arvense (Canada thistle); conditions: for % visual injury, Obs: CIRAR, Compound A 10 g/ha
From the text: as §1, §2, §3, §4, §5

[4] = tested on: KCHSC, Kochia scoparia (kochia)
From the text: as §1, §2, §3, §4, §5

[5] = tested on: LEFCH, Leptochloa chinensis (Chinese sprangletop); conditions: Compound A 10 g/ha, without cloquintocet-mexyl safener
From the text: as §1, §2, §3, §4, §5

[6] = tested on: MATCH, Matricaria chamomilla (wild chamomile)
From the text: as §1, §2, §3, §4, §5

[7] = tested on: ALOMY, Alopecurus myosuroides (blackgrass)
From the text: as §1, §2, §3, §4, §5

[8] = tested on: RUMOB, Rumex obtusifolius (broad-leaf dock); conditions: Compound A 10 g/ha
From the text: as §1, §2, §3, §4, §5

[9] = tested on: CHEAL, Chenopodium album L. (common lambsquarters)
From the text: as §1, §2, §3, §4, §5

[10] = tested on: STEME, Stellaria media (chickweed); conditions: STEME, Compound A 10 g/ha
From the text: as §1, §2, §3, §4, §5

[11] = tested on: POLCO, Polygonum convolvulus (wild buckwheat); conditions: POLCO, Compound A 10 g/ha
From the text: as §1, §2, §3, §4, §5

[12] = tested on: ABUTH, Abutilon theophrasti (velvetleaf); conditions: for % visual injury, Obs: ABUTH, Compound A 10 g/ha
From the text: as §1, §2, §3, §4, §5

[13] = tested on: CYPES, Cyperus esculentus (nutsedge); conditions: Compound A 10 g/ha
From the text: as §1, §2, §3, §4, §5

[14] = tested on: BRSNW, Brassica napus (winter rape)
From the text: as §1, §2, §3, §4, §5

[15] = tested on: SORVU, Sorghum vulgare (grain sorghum)
From the text: as §1, §2, §3, §4, §5

[16] = tested on: SETFA, Setaria faberi (giant foxtail); conditions: SETFA, Compound A 10 g/ha
From the text: as §1, §2, §3, §4, §5

[17] = tested on: AVEFA, Avena fatua (wild oat)
From the text: as §1, §2, §3, §4, §5

[18] = tested on: SINAR, Sinapis arvensis (wild mustard)
From the text: as §1, §2, §3, §4, §5

[19] = without cloquintocet-mexyl safener

N#CCOC(=O)c1nc(-c2ccc3cc[nH]c3c2F)c(F)c(N)c1Cl [Compound A, cyanomethyl 4-amino-3-chloro-5-fluoro-6-(7-fluoro-1H-indol-6-yl)pyridine-2-carboxylate]
visual injury ([1]; 10 g ae/ha alone): 60% and 45% and 73% | % visual injury, Obs ([1]; BRSNN, Compound A 10 g/ha): 65% | visual injury ([2]; 7.5 g ae/ha alone): 20% | visual injury ([2]; 10 g ae/ha alone): 25% | % visual injury, Obs ([2]; IPOHE, Compound A 10 g/ha, without cloquintocet-mexyl safener): 15% | visual injury ([3]; 10 g ae/ha alone): 40% and 60% and 30% and 55% | % visual injury, Obs [3]: 60% | % visual injury, Obs [3, 19]: 28% | visual injury ([4]; 7.5 g ae/ha alone): 63% and 50% and 65% and 70% | visual injury ([4]; 10 g ae/ha alone): 63% and 58% and 70% | % visual injury, Obs ([4]; KCHSC, Compound A 10 g/ha, without cloquintocet-mexyl safener): 88% | % visual injury, Obs [5]: 0% | visual injury ([6]; 7.5 g ae/ha alone): 20% and 18% and 10% | visual injury ([6]; 10 g ae/ha alone): 30% and 20% | visual injury ([7]; 7.5 g ae/ha alone): 0% | visual injury ([7]; 10 g ae/ha alone): 0% | % visual injury, Obs ([7]; ALOMY, Compound A 10 g/ha, without cloquintocet-mexyl safener): 0% | % visual injury, Obs [8]: 13% | % visual injury, Obs [8, 19]: 35% | visual injury ([9]; 7.5 g ae/ha alone): 88% and 70% and 75% | visual injury ([9]; 10 g ae/ha alone): 93% and 83% and 78% and 80% | % visual injury, Obs [10]: 90% | % visual injury, Obs [10, 19]: 88% | % visual injury, Obs [11]: 93% | % visual injury, Obs [11, 19]: 78% | visual injury ([12]; 7.5 g ae/ha alone): 68% | visual injury ([12]; 10 g ae/ha alone): 80% | % visual injury, Obs [12]: 80% | % visual injury, Obs [12, 19]: 75% | % visual injury, Obs [13]: 8% | % visual injury, Obs [13, 19]: 0% | visual injury ([14]; 7.5 g ae/ha alone): 35% and 63% | visual injury ([14]; 10 g ae/ha alone): 43% and 68% and 40% | % visual injury, Obs ([14]; BRSNW, Compound A 10 g/ha, without cloquintocet-mexyl safener): 65% | visual injury ([15]; 7.5 g ae/ha alone): 0% | visual injury ([15]; 10 g ae/ha alone): 0% | % visual injury, Obs ([15]; SORVU, Compound A 10 g/ha, without cloquintocet-mexyl safener): 0% | % visual injury, Obs [16]: 80% | % visual injury, Obs [16, 19]: 0% | visual injury ([17]; 7.5 g ae/ha alone): 0% | visual injury ([17]; 10 g ae/ha alone): 0% | % visual injury, Obs ([17]; AVEFA, Compound A 10 g/ha, without cloquintocet-mexyl safener): 0% | visual injury ([18]; 7.5 g ae/ha alone): 88% and 85% and 83% | visual injury ([18]; 10 g ae/ha alone): 90% and 92% and 88%
